{"source": "patent US9492471B2", "about": "“Methods of treating a disease or disorder associated with Bruton'S Tyrosine Kinase” (Celgene Avilomics Research, Inc., priority 2013, dated 2016)", "test_in_all_cases": "HotSpot kinase profiling", "format_in_all_cases": "biochemical", "key": {"[1]": {"molecular_target": "T1, PLK2 (Homo sapiens, UniProt Q9NYY3)", "T1 construct": "purchased Reaction Biology Corp", "T1 sequence (Q9NYY3 whole entry)": "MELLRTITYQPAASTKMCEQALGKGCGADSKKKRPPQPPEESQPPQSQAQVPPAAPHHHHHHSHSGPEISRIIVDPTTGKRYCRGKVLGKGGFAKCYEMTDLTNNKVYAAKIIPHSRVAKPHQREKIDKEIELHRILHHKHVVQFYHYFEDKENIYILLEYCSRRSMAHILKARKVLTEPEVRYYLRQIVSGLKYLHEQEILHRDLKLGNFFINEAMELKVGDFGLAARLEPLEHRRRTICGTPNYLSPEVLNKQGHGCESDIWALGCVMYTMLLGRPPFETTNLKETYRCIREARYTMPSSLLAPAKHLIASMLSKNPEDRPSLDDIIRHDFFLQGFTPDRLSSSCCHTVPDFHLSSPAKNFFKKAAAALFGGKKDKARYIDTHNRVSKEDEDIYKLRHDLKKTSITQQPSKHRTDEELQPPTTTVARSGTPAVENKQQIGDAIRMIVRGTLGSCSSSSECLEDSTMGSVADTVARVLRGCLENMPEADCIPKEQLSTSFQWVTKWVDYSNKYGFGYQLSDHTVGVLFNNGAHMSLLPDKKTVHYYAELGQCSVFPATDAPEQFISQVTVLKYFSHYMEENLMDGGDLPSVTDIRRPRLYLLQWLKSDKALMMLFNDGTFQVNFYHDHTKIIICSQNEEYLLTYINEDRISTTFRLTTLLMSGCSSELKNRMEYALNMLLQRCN", "in_short": "(§1)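 Activity is measured by radiolabel transfer captured on P81 filters after a 2 h room-temperature reaction of kinase, substrate and cofactors. Values are percent inhibition against DMSO.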"}, "[2]": {"molecular_target": "T2, Btk (Homo sapiens, UniProt Q06187)", "T2 construct": "purchased Reaction Biology Corp", "in_short": "as §1"}, "[3]": {"molecular_target": "T3, CDK1/cyclin E (Homo sapiens, UniProt P06493)", "T3 construct": "purchased Reaction Biology Corp", "T3 sequence (P06493 whole entry)": "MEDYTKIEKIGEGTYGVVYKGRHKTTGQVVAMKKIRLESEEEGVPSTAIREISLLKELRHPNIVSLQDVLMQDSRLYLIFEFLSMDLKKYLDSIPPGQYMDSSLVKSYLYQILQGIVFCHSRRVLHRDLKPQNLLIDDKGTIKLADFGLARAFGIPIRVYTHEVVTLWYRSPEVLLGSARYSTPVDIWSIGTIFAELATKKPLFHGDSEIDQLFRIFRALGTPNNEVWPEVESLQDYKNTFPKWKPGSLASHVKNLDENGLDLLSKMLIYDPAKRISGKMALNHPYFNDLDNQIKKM", "T3 sequence (P24864 whole entry partner)": "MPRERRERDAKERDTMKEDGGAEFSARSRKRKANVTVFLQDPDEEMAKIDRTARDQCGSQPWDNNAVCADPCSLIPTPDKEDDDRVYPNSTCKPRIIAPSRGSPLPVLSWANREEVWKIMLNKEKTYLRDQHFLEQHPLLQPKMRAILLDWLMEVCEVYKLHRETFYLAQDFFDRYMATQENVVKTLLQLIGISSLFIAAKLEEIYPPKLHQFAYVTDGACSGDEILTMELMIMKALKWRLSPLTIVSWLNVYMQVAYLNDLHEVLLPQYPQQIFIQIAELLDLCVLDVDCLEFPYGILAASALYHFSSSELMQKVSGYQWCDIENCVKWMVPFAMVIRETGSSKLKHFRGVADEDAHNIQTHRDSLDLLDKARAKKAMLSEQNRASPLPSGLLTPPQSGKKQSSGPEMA", "in_short": "as §1"}, "[4]": {"molecular_target": "T4, PLK4/SAK (Homo sapiens, UniProt O00444)", "T4 construct": "purchased Reaction Biology Corp", "T4 sequence (O00444 1-970)": "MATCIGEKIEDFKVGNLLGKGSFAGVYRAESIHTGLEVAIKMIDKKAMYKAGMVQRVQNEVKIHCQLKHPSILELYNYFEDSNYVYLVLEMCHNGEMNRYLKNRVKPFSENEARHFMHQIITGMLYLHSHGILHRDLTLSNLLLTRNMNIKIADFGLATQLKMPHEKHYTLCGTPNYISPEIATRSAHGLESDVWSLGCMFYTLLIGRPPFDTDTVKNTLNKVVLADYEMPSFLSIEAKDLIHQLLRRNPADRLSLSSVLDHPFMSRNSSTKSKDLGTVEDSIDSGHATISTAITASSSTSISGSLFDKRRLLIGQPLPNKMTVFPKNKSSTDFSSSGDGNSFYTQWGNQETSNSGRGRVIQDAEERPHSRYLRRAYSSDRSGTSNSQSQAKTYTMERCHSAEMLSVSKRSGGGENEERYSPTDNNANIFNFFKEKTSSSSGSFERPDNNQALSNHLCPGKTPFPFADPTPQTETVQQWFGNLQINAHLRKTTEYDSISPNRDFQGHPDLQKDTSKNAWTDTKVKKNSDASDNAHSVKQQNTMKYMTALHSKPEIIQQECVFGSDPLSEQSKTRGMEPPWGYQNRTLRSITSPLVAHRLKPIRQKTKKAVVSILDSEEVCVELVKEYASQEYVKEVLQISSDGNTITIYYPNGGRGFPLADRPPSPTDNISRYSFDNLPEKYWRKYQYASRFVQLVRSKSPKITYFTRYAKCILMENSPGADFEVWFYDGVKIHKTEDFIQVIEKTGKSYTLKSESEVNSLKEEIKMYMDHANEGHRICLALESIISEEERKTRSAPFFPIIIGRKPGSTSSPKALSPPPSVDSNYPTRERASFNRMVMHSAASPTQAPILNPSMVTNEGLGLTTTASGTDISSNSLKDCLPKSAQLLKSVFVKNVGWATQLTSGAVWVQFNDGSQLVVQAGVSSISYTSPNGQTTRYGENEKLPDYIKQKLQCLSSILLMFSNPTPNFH", "in_short": "as §1"}, "[5]": {"molecular_target": "T5, PKCeta (Homo sapiens, UniProt P24723)", "T5 construct": "purchased Reaction Biology Corp", "T5 sequence (P24723 whole entry)": "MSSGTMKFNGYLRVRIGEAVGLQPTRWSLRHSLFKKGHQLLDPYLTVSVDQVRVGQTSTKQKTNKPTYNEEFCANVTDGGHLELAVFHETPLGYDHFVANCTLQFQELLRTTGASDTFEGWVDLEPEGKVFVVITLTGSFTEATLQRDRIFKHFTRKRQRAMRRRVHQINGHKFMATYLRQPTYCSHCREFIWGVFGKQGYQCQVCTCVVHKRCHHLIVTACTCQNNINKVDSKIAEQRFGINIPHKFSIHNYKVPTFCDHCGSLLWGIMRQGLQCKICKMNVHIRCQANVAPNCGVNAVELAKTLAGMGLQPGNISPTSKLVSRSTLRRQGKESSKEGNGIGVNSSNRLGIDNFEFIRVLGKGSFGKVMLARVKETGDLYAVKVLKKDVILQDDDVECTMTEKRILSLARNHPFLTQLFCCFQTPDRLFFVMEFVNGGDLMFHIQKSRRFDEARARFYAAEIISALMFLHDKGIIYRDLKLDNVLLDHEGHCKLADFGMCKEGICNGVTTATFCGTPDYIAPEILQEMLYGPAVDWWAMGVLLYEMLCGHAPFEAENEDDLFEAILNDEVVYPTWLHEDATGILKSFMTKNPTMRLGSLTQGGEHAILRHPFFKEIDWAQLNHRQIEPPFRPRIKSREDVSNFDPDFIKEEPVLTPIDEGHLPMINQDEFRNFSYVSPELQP", "in_short": "as §1"}, "[6]": {"molecular_target": "T6, PKA (Homo sapiens, UniProt P17612)", "T6 construct": "purchased Reaction Biology Corp", "in_short": "as §1"}, "[7]": {"molecular_target": "T7, CDK9/cyclin K (Homo sapiens, UniProt P50750)", "T7 construct": "purchased Reaction Biology Corp", "T7 sequence (P50750 whole entry)": "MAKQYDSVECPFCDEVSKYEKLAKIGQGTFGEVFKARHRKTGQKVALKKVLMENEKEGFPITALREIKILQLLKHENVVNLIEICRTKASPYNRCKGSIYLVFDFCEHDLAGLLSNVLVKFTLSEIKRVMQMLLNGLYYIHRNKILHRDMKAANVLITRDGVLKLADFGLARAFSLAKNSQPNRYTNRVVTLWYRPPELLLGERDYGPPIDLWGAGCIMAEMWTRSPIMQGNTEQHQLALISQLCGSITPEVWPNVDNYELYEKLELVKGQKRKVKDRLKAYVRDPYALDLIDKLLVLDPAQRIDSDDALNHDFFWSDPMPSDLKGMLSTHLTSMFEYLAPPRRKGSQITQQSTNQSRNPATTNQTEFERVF", "T7 sequence (O75909 whole entry partner)": "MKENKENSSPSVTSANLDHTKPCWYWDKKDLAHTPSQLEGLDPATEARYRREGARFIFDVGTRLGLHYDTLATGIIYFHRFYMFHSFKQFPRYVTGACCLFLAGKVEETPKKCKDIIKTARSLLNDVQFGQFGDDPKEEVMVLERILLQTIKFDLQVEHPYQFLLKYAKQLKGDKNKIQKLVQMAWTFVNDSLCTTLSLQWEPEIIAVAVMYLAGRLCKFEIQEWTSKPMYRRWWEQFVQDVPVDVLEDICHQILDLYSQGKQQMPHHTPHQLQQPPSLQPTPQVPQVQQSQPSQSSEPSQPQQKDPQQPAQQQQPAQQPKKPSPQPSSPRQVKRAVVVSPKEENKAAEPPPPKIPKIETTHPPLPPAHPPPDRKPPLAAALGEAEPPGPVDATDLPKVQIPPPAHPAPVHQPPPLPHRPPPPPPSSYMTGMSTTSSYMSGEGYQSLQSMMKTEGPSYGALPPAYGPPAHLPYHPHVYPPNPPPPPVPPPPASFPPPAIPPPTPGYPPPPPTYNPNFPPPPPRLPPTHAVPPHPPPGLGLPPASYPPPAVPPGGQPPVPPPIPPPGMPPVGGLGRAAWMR", "in_short": "as §1"}, "[8]": {"molecular_target": "T8, RSK4 (Homo sapiens, UniProt Q9UK32)", "T8 construct": "purchased Reaction Biology Corp", "T8 sequence (Q9UK32 whole entry)": "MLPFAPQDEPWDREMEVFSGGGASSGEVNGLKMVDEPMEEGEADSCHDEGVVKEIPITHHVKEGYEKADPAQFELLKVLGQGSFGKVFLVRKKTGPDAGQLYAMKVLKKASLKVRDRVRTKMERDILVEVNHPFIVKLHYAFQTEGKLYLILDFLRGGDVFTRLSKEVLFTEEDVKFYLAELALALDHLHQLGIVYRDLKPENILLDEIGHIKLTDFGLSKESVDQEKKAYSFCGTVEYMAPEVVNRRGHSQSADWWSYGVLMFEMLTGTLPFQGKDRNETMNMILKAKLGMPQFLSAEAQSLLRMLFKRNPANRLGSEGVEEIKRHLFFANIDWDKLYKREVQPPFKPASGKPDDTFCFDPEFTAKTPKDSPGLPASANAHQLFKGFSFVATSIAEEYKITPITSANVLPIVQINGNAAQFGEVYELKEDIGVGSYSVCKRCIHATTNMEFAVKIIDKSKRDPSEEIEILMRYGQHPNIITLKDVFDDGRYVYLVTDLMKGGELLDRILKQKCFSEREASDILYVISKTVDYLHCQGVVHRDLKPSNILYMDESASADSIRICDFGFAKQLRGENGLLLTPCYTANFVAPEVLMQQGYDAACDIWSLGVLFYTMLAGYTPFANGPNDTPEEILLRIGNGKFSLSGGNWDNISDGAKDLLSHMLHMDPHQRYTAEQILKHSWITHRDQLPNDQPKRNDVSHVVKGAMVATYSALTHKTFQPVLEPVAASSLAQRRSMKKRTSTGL", "in_short": "as §1"}, "[9]": {"molecular_target": "T9, HIPK4 (Homo sapiens, UniProt Q8NE63)", "T9 construct": "purchased Reaction Biology Corp", "T9 sequence (Q8NE63 1-616)": "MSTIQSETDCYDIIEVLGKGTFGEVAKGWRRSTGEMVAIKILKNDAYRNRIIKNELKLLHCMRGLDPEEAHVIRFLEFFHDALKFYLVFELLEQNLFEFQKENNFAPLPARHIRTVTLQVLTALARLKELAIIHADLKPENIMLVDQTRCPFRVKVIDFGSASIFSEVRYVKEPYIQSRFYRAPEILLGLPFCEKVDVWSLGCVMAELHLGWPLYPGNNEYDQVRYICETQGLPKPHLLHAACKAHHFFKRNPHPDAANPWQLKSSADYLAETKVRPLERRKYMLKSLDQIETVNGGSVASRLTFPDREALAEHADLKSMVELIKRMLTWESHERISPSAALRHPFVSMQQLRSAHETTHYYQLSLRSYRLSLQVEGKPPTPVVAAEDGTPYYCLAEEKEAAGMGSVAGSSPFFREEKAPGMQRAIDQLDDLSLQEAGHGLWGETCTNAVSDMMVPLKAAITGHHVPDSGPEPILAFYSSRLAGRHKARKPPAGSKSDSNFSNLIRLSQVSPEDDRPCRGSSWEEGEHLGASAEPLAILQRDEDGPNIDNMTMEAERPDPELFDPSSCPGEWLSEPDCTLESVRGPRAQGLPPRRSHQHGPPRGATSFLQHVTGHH", "in_short": "as §1"}, "[10]": {"molecular_target": "T10, HIPK1 (Homo sapiens, UniProt Q86Z02)", "T10 construct": "purchased Reaction Biology Corp", "T10 sequence (Q86Z02 whole entry)": "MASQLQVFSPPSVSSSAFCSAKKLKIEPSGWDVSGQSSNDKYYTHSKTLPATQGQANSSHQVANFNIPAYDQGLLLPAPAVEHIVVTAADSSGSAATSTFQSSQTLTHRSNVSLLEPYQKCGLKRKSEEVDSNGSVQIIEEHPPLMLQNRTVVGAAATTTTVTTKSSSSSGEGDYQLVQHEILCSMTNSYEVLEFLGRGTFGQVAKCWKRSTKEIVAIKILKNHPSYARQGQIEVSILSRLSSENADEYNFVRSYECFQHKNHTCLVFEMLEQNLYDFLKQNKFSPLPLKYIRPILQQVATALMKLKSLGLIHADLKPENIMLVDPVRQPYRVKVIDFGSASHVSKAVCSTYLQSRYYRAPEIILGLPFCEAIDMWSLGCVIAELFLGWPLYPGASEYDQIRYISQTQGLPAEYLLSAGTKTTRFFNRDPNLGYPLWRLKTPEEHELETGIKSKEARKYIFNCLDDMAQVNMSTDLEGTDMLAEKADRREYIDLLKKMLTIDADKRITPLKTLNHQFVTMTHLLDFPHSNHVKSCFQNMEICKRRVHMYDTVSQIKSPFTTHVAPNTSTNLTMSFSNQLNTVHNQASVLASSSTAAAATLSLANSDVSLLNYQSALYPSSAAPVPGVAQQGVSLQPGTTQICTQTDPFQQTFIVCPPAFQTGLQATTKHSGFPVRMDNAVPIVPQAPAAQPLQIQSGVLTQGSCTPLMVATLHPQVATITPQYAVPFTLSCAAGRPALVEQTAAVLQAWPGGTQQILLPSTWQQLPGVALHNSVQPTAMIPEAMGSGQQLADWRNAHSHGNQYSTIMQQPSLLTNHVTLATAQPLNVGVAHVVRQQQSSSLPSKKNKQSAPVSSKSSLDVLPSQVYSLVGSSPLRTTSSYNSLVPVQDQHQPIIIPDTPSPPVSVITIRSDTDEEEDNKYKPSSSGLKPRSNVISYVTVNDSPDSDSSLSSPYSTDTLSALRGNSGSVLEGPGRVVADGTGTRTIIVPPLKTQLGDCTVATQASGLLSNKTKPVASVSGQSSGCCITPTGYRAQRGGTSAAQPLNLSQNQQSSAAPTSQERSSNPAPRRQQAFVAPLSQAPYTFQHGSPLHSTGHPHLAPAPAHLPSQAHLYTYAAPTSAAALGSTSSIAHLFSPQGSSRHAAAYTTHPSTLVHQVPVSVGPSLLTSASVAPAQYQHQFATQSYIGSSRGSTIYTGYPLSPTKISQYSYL", "in_short": "as §1"}, "[11]": {"conditions": "read-out: % Enzyme Activity (relative to DMSO controls) Run 1"}, "[12]": {"conditions": "read-out: % Enzyme Activity (relative to DMSO controls) Run 2"}}, "note": "Read-outs that look alike come from different tables or passages of the source.", "data": [{"smiles": "C=CC(=O)Nc1cccc(Nc2nc(Nc3ccc(OCCOC)c(F)c3)ncc2F)c1", "note": "[Compound 2]", "values": [{"measurement": "inhibition at 3 µM", "setting": "[1]", "value": 13.3, "unit": "%"}, {"measurement": "remaining activity at 3 µM", "setting": "[1]; [11]", "value": 86.6, "unit": "%"}, {"measurement": "remaining activity at 3 µM", "setting": "[1]; [12]", "value": 86.7, "unit": "%"}, {"measurement": "inhibition at 3 µM", "setting": "[2]", "value": 95.5, "unit": "%"}, {"measurement": "remaining activity at 3 µM", "setting": "[2]; [11]", "value": 3.69, "unit": "%"}, {"measurement": "remaining activity at 3 µM", "setting": "[2]; [12]", "value": 5.4, "unit": "%"}, {"measurement": "inhibition at 3 µM", "setting": "[3]", "value": -1.3, "unit": "%"}, {"measurement": "remaining activity at 3 µM", "setting": "[3]; [11]", "value": 100, "unit": "%"}, {"measurement": "remaining activity at 3 µM", "setting": "[3]; [12]", "value": 102, "unit": "%"}, {"measurement": "inhibition at 3 µM", "setting": "[4]", "value": 45, "unit": "%"}, {"measurement": "remaining activity at 3 µM", "setting": "[4]; [11]", "value": 54.8, "unit": "%"}, {"measurement": "remaining activity at 3 µM", "setting": "[4]; [12]", "value": 55.2, "unit": "%"}, {"measurement": "inhibition at 3 µM", "setting": "[5]", "value": -12.8, "unit": "%"}, {"measurement": "remaining activity at 3 µM", "setting": "[5]; [11]", "value": 109, "unit": "%"}, {"measurement": "remaining activity at 3 µM", "setting": "[5]; [12]", "value": 117, "unit": "%"}, {"measurement": "inhibition at 3 µM", "setting": "[6]", "value": 14.5, "unit": "%"}, {"measurement": "remaining activity at 3 µM", "setting": "[6]; [11]", "value": 85.8, "unit": "%"}, {"measurement": "remaining activity at 3 µM", "setting": "[6]; [12]", "value": 85.1, "unit": "%"}, {"measurement": "inhibition at 3 µM", "setting": "[7]", "value": 18.1, "unit": "%"}, {"measurement": "remaining activity at 3 µM", "setting": "[7]; [11]", "value": 81.7, "unit": "%"}, {"measurement": "remaining activity at 3 µM", "setting": "[7]; [12]", "value": 82.2, "unit": "%"}, {"measurement": "inhibition at 3 µM", "setting": "[8]", "value": 22.8, "unit": "%"}, {"measurement": "remaining activity at 3 µM", "setting": "[8]; [11]", "value": 77.2, "unit": "%"}, {"measurement": "remaining activity at 3 µM", "setting": "[8]; [12]", "value": 77.2, "unit": "%"}, {"measurement": "inhibition at 3 µM", "setting": "[9]", "value": 6.31, "unit": "%"}, {"measurement": "remaining activity at 3 µM", "setting": "[9]; [11]", "value": 93.6, "unit": "%"}, {"measurement": "remaining activity at 3 µM", "setting": "[9]; [12]", "value": 93.8, "unit": "%"}, {"measurement": "inhibition at 3 µM", "setting": "[10]", "value": 10.3, "unit": "%"}, {"measurement": "remaining activity at 3 µM", "setting": "[10]; [11]", "value": 87.6, "unit": "%"}, {"measurement": "remaining activity at 3 µM", "setting": "[10]; [12]", "value": 91.7, "unit": "%"}]}]}
